melting point [°C] | Compound
250 to 252 | CNC(=O)c1ccc(Nc2cc(-n3ccc(C(F)(F)F)n3)c3ccccc3n2)cc1
164 to 167 | COc1cccc2c1Cc1ccccc1C2(CCO)CCO
114 to 116 | CCC[C@@H]1CCC[C@H](NC(=O)OC(C)(C)C)C(=O)N1
80 to 82 | CCCC(=O)c1c(O)oc(=O)c(C(=O)CCC)c1O
49 to 51 | CCN(CCNC(=O)c1cnc2cc(I)ccc2n1)CCNc1cccc(Br)n1
86.3 to 87.8 | CCCCCCc1ccc(-c2ncc(C#N)cn2)cc1
142 to 143 | CCCCCNS(=O)(=O)NC(=O)OCc1ccccc1
104 to 105 | OCc1cnoc1-c1cc(Cl)cc(Cl)c1
78 to 80 | CO/C=C(/C(=O)OC)c1ccccc1C=CCO
235 to 237 | CC(C)(C)c1cc2c(c(-c3nc4ccc(S(=O)(=O)C(F)(F)F)cc4c(=O)[nH]3)c1O)CCO2
205 to 206 | FC(F)(F)c1ccc(Nc2nnc(Cc3ccncc3)c3ccccc23)cc1
92 to 96 | COC(=O)CC1CCc2cc(OC)ncc2C1O (stereo not given)
197 to 199 | CC(=O)c1cccc(N2C(=O)CCSC2=S)c1
73 | ClCc1ccc(-c2ccccc2)cn1
190 | O=[N+]([O-])c1cc2cc(Cl)ccc2nc1Cl
120 to 125 | COC(=O)C1Cc2sc(N)c(C(=O)c3ccccc3Cl)c2C1 (stereo not given)
92 to 94 | CC(=O)N[C@@H](CSC(=O)C(C)(C)C)C(=O)NCCSC(C)=O
181 to 183 | CCc1nc2c(c(C)c(C)n3nnnc23)n1CCOCCN
85 to 87 | CCOc1c(C(=O)c2cccs2)cnc2c1cnn2Cc1ccco1
170 to 172 | CN(C)c1ncc(-c2cccc(-n3cnc4cc(-c5ccco5)ccc43)c2)cn1
162 | O=C(c1sc2c(ccc(=O)n2-c2ccccc2)c1Br)N1CC(OC2CCCCO2)C1 (stereo not given)
145 to 147 | CCC(CC)N(Cc1ccc(C(=O)O)cn1)S(=O)(=O)c1ccc(F)cc1
175 to 177 | COc1cc(Br)c2oc(-c3ccc(OC)c(F)c3)nc2c1
173 to 175 | Cn1c(CC(=O)O)ccc1C(=O)c1ccc(N)cc1

melting point [°C] | Compound
129 to 130 | O=C(Cl)CN1C(=O)c2ccc([N+](=O)[O-])cc2C1=O
247 to 248 | O=C(O)c1cn(-c2ccc(SC(F)(F)F)cc2)cn1
151 to 152 | Cc1nc(-n2cnn(Cc3ccc(OC(F)F)cc3)c2=O)sc1C(=O)NCc1cccnc1
116 | CCOC(=O)CC(=O)C=Cc1ccc([N+](=O)[O-])cc1
233 | Nc1ccc(-c2noc(-c3cnn4c(C(F)(F)F)cc(-c5ccc(C(F)(F)F)c(F)c5)nc34)n2)cn1
175 to 176 | Cc1noc(NC(=O)N2CCN(c3nc(-c4cccc(Cl)c4Cl)cs3)CC2)c1C
145 to 147 | c1ccc(CCN2CCN(c3n[nH]c4c3CCc3sccc3-4)CC2)cc1
270 to 271 | CSc1ncc2ccc(=O)[nH]c2n1
270 to 271 | O=C(c1cc2cc3[nH]c(=O)oc3cc2[nH]1)N1CCC(Cc2ccccc2)CC1
188 to 190 | CCOC(=O)c1cc(-n2c(=O)c3c(n(C)c2=O)CCC3)ccc1[N+](=O)[O-]
242 to 244 | CCSc1nc2c(cc1F)c(=O)c(C(=O)O)cn2C1CC1
198 to 200 | CCn1cc(C(=O)O)c(=O)c2cc(F)c(N3CCNC(c4ccsc4)C3)cc21 (stereo not given)
135 to 136 | Nc1ccc(Oc2ccccc2Oc2ccc(N)cc2)cc1
149 to 150 | CCN(CC)CC(=O)OC1CC2(C)C(C(C)=O)CCC2C2CCC3CC(O)C(Br)CC3(C)C12 (stereo not given)
145 | COc1ccc(CCN(C)CCOc2ccc(NC(=O)c3cccc4c(=O)c5cc(F)ccc5sc34)cc2)cc1OC
189 to 190 | COC(=O)C(=NO)c1nc2ccc(C)cc2oc1=O
192 to 196 | CC1c2cc(O)ccc2-c2ccc(O)cc21
128 to 130 | Fc1ccc(Nc2ncnc3cnc(N4CCC(CCCC5CCNCC5)CC4)nc23)cc1Cl
133 to 135 | Cc1cc(SC2=C(O)CC(CCc3ccc(O)cc3)(C3CCCC3)OC2=O)c(C(C)(C)C)cc1N (stereo not given)
> 260 | CCOC(=O)c1cnc2ccc(C(F)(F)F)cc2c1O
126 to 131 | CCOc1cc(N(CC)CC)ccc1C1(N(c2ccccc2)c2ccc(NC(C)=O)cc2)OC(=O)c2ccccc21 (stereo not given)
210 to 212 | COc1ccc(C(=C/C=C/C(=O)Nc2ccc(-c3cccnc3)cc2)c2ccc(OC)cc2)cc1
180 to 181 | NC(=O)c1c(F)ccc(OCc2nc3ncccc3o2)c1F
177 to 180 | c1ccc(COc2ccc3c(c2)CCc2c-3[nH]c3ccc(OCc4ccccc4)cc23)cc1

melting point [°C] | Compound
166 to 169 | Nc1cnc(N2CCN(CCCC(=O)c3ccc(F)cc3)CC2)cc1N
79 to 81 | CCCCCN(C(=O)Cl)c1ccc2c(c1)C(C)(C)CCC2(C)C
128 to 132 | CCCCCCCCCCCCCCCCCCOc1ccc(O)c(C(=O)N(CC(=O)O)CC(=O)O)c1
94.3 | CCOCCn1c(NC2CCN(CCO)CC2)nc2cccnc21
100 to 102 | COP(=O)(OC)C(O)=Cc1ccc(C)cc1
108 to 111 | CCOc1cc(C(C)(C)C)ccc1-c1nc(-c2c(F)cccc2Cl)nn1C
71 to 73 | C(#Cc1ccccn1)CCn1nnc(-c2ccccc2)n1
218 to 222 | COC(=O)c1nn(Cc2cccc(O)c2)c2c1CCc1cc(OCc3cncnc3)ccc1-2
125 to 133 | COc1ccc(-c2cc(COS(C)(=O)=O)c(=O)n(Cc3ccc(F)cc3)n2)cc1F
72 to 73 | CC1(NCC(O)c2ccc3nnnn3c2)CC1 (stereo not given)
190 to 192 | COc1cc(C2=NN(c3ccccc3)C(=O)C2)cc([N+](=O)[O-])c1OC
115 to 119 | CC1(NC(=O)C(Br)CBr)COCOC1 (stereo not given)
72 | CCOC(=O)NC=C(C(=O)OCC)c1ccc(Cl)cc1
149 | COc1ccc(C2=C(C#N)C(c3ccccc3OC)c3c[nH]nc3N2)cc1 (stereo not given)
229 to 230 | CCN1C(=O)C2=C(c3ccccc3)N(CC)C(=O)C2=C1c1ccccc1
261 to 262 | CCON=C1CN(c2nc3c(cc2F)c(=O)c(C(=O)O)cn3C2CC2)CC12CN(C(=O)OC(C)(C)C)C2
198 to 199 | NC(=O)Cc1cccc(C(O)c2ccccc2)c1N (stereo not given)
109 | CCOCCCNC(=O)c1ccc(S(=O)(=O)NC(=O)c2ccc(C(=O)NCC(=O)O)nc2)cc1
161 to 162 | Cc1cccc(NC(=O)OCCS(C)(=O)=O)c1CNc1cccn2c(C)c(C)nc12
111 to 115 | CCOC(=O)C1=Cc2cc(N)ccc2OC1C(F)(F)F (stereo not given)
159 | CN(C)C(=O)COc1ccc2c(-c3ccc(Br)cc3)nsc2c1
78 to 88 | CC(=O)Nc1cnc(-c2ccc(CC(C)N3CC(c4cccc(Cl)c4)OC3=O)cc2)o1 (stereo not given)
118 to 119 | C=CCOc1ccc(C(=O)c2ccnn2C)c(Cl)c1Cl
100 | Cn1ccc2ccc(-c3ccc(C(F)(F)F)cc3)cc21

melting point [°C] | Compound
88 to 92 | CCCCCCCCCCOc1ccc(C(O)C(O)c2ccc(C(=O)OC)cc2)nc1CCC(=O)OC (mixture of isomers)
69 to 72 | CN(CC(=O)[C@H](Cc1ccccc1)NC(=O)N1CCCCC1)C(=O)N1CCC[C@H]1C(=O)O
194 | CC(C)c1cc(C#N)cc(C(=O)Nc2ccc(F)cn2)n1
107 to 109 | CC(O)c1ccc(OCCCCl)c(O)c1 (stereo not given)
116 to 117 | CCOC(=O)N1CCN(C(=O)/C=C/S(=O)(=O)c2ccccc2)CC1
245 | COc1ccc(-c2c(C(=O)O)c(=O)n(Cc3ccccc3OC)c3c2oc2cc(N)ccc23)cc1
83.5 to 85 | O=C(CC(=O)C(F)F)c1ccc(Br)s1
130 to 132 | O=C(O)C(Cc1ccccc1)NC(=S)Cc1cccc2ccccc12 (stereo not given)
> 260 | Nc1nc2c(ncn2CCOCP(=O)(O)O)c(=O)[nH]1
188 to 190 | CC(=O)C1=C(O)C(C(=O)C=Cc2ccc(C)cc2)C(=O)OC1=O (stereo not given)
115 to 117 | COC(=N)NC(=O)Nc1ccc(Cl)cc1
274 to 276 | Cc1ccc(Br)cc1NS(=O)(=O)c1ccccc1C(=O)O
168 to 169 | CCC(CC)n1nnc2c(Nc3c(Cl)cc(OC)cc3OC)nc(C)cc21
153 to 155 | NC[C@H]1C=Cc2cc(F)cc(-c3c(Cl)cccc3Cl)c2O1
140 to 141 | CNC(=O)N1Cc2ccccc2CCC1=O
100 to 102 | O=C1c2ccccc2C(=O)N1CCCCOc1ccc(-c2ccncn2)cc1
199 to 200 | COC(=O)c1ccc(C)c(-n2c(C)cc(OCc3ccccc3CNC(=O)Nc3cc(C(C)(C)C)nn3-c3ccc(O)cc3)c(Cl)c2=O)c1
173 to 174 | Cc1ccc(N(C)S(=O)(=O)c2cccs2)c2[nH]c(C3=NCC(C#N)S3)cc12 (stereo not given)
102 to 103 | CCCCCCCCCC(=O)NC(=O)OCc1nc(C(C)C)c(Sc2cc(Cl)cc(Cl)c2)n1CC
75 to 77 | CCN(CC)CCNC(=O)c1ccc2cc(I)ccc2n1
250 to 253 | O=C1Nc2ccccc2Oc2ncccc21
100 | Cc1cccc(C)c1C(CNC(=O)OC(C)(C)C)COCc1c(F)cccc1F (stereo not given)

Compound | melting point [°C]
Cc1cccc(NC(=O)NC2N=C(C3CCCC3)c3ccccc3N(CC(=O)N3CC4CCC(CC4)C3)C2=O)c1 (racemic) | 132 to 134
CC(C)C(=O)NC1CCc2c(c3cc(C#N)ccc3n2Cc2ncccc2F)C1 (stereo not given) | 213 to 216
CSc1nc2cccc3c2n1CC(N(C)C)C3 (stereo not given) | 84 to 86
CNC(=O)Oc1ccc(NS(C)(=O)=O)c(C)c1 | 167 to 169
CC(C=Cc1cccc(-c2cc3c(cc2C)C(C)(C)CCC3(C)C)c1)=CC(=O)O | 99 to 101
Cc1cc(C)n(CCOc2cc3c(cc2C)OC2(CC(C)(C)c4cc(O)c(C)cc4O2)CC3(C)C)n1 (stereo not given) | 223 to 225

Reference: a melting point compilation (Tetko et al.; mined from patent text by program, amines drawn as free bases though some values may be those of a salt)
